Results from patent publication US20240142474A1, “Opsins as Chemosensory Receptors and Related Methods” (The Regents of the University of California, priority 2021, published 2024).
Entries after “also recorded” stand apart in the source; their conditions may differ.

What was measured:
[1] = biological target: T1, OPN3 (Mus musculus, UniProt Q9WUK7); experiment: TANGO assay (beta-arrestin recruitment, luciferase reporter) in HTLA cells, OPN3; format: cell-based; conditions: 4 hours
T1 construct: expressed in transfected cells; host or cells: HTLA cells (HEK293 line with tTA-dependent luciferase reporter and beta-arrestin2-TEV fusion)
Description: (§1) For example, in one implementation the chemosensory opsin activation detection element comprises a TANGO assay (Transcriptional Activation Following Arrestin Translocation), as known in the art, for example, as described by Kroeze et al., 2015. PRESTO-Tango as an open-source resource for interrogation the druggable human GPCRome. Nat Struct Mol Biol 22, 362-369. In the TANGO systems of the invention, a cell is engineered to express a chemosensory opsin in the form of a fusion protein, wherein the opsin fusion protein comprises an optional membrane trafficking signal (e.g. HA), an optional FLAG tag or like epitope to facilitate detection, and a transcriptional activator which induces the expression of a reporter gene, such as luciferase, wherein the transcriptional activator is joined to an intracellular portion of the opsin, for example, the […], by a cleavage sequence. The cells of the TANGO system are further engineered to express a second fusion protein comprising a beta-arrestin fused to a protease, for example, a TEV protease, wherein the protease is capable of cleaving the fusion protein at the cleavage site. The cells of the TANGO system are further engineered to express a reporter protein, e.g. luciferase, under the control of a transcriptional activator, for example, tetracycline-controlled transactivaor (tTA). Ligand binding to the opsin deployed in the TANGO system triggers a conformational change in the opsin that recruits the beta arrestin-protease fusion protein to the opsin, where proximity of the protease induces cleavage of the transcriptional activator, which trafficks to the nucleus and induces the expression of the reporter gene. The TANGO system advantageously allows direct quantification of opsin activation, independent of g protein activity.
(§2) Human transcriptomics data was mined to identify putative taste receptor proteins. […] However, the role of these opsins in taste perception has not been previously explored. TANGO detection elements employing each of these opsins, in both human and mouse isoforms, were created in HTLA cells (a HEK293 cell line stably expressing a tTA-dependent luciferase reporter and a β-arrestin2-TEV fusion gene), based on protocols in Kroeze et al., 2015. PRESTO-Tango as an open-source resource for interrogation of the druggable human GPCRome. Nat Struct Mol Biol 22, 362-369.
(§3) In the TANGO assay, the mouse opsin coding sequence with an N-terminal FLAG tag was synthesized. The construct was cloned into a TANGO vector (Addgene, Waterton MA) at the ClaI site (FLAG::opsin). The HTLA cells were transfected in a 6-well format with LIPOFECTAMINE 2000™ (Thermo Fisher Scientific, Inc, Waltham MA, USA) according to the manufacturer's instructions. 6-8 hours post transfection cells weret split 1:3 and the media was switched to DMEM+ 2.5% fetal bovine serum (Thermo Fisher Scientific Inc., Waltham MA, USA). Cells were allowed to grow for 48 hours before splitting the cells onto poly-L-lysine-coated 96-well clear, flat bottom white polystyrene plates in serum-free media. The next day, chemical solutions diluted in TANGO assay buffer (20 mM HEPES, 1× HBSS, pH 7.40) were added to the cells. After 4 hours, the medium and drug solutions were removed and replaced with […] per well of BRIGHTGLO™ reagent (Promega Corporation, Madison WI) diluted 20-fold with TANGO assay buffer. Plates were incubated for 20 minutes at room temperature in the dark before measuring luminescence with a plate reader (Molecular Devices, iD3). The normalized response was calculated using following formula: RLU (relative luminescence units)=test compound RLU−average vehicle control RLU.

[2] = biological target: T2, OPN3 (Homo sapiens, UniProt Q9H1Y3); experiment: Calcium flux GPCR activation assay with Fluo-8 dye, opsin-expressing HEK293T cells, OPN3; format: cell-based; conditions: Fluo-8 calcium flux, data not shown
T2 construct: expressed in transfected cells; host or cells: HEK293T
Protocol: (§4) These foregoing TANTO results were further confirmed using a second, a calcium flux GPCR activation assay employing Fluo-8 dye, as follows. For this intracellular Ca^2+ measurement, opsin-expressing HEK293T cells were seeded onto 96-well plates (4×10^4 cells per well) in 100 μl of culture medium with reduced serum contents (0.5% of FBS) per well and incubated overnight under standard culture conditions. [Ca2+]i level was assessed the next day after stimulation with bitter compounds used at a different concentration with the SCREEN QUEST Fluo-8 No Wash Calcium Assay Kit (AAT Bioquest, Inc., Sunnyvale, CA, USA) according to the supplier's protocol. Calcium flux was monitored simultaneously by the change in fluorescence (Ex/Em=490/520 nm) following stimulation and with respect to the background fluorescence. [Ca^2+]i was monitored for a period of three minutes, starting before the addition of compounds to the wells and continuing during measurement of the fluorescent signal following cells' stimulation. The obtained fluorescence reads were normalized to the results obtained after stimulation of the cells with the compound solvent.

[3] = test system: OPN3 knockout mice; experiment: Mouse brief-access taste assay (lickometer), OPN3 knockout mice compared to wild type; format: in vivo; conditions: water restricted
Protocol: Knockout mice were obtained for OPN1SW and OPN3. Two independent OPN3 knockout mice lines were tested for reaction to naringin by a mouse taste preference assay. A Lickometer device (MS-160, Di Log Instruments, Inc.,Tallahassee, FL, USA) was used to train mice and then measure their licking responses to different tastants in brief-access trials. On a given trial, each sipper tube was filled with a solution and made available to a mouse via a small port that opened to a metal/plexiglass chamber housing the animal. The mouse chamber of the lickometer was modified for these studies by adding a plexiglass barrier that restricted the free movement of animals to an approximate 10 by 15 cm area facing the fluid access port. A computer running software that communicated with the lickometer recorded tongue contacts with the metal tip of the sipper tube during licking and the time intervals (precision=1 ms) between consecutive licks (inter-lick intervals). The amount of time that the sipper tube was available through the access port could be programmed and was controlled by the opening of a normally closed, computer-actuated shutter. This feature facilitated presentation of solutions to a mouse for only a few seconds to support measurements of brief-access licking behavior. By indexing initial licking responses to stimuli over short periods, brief-access procedures intend to focus on oral sensory influences and avoid any post-ingestive effect. Groups of three to four mice were run in these studies at one time. Groups always included equal numbers of mutant and wild-type mice to control for temporal factors.
Training. Mice were restricted from drinking water for 20-22 hours prior to the onset of training. During training, experimentally naive mice learned to receive fluid in the lickometer over a 3-day period. On the first and second day of training, mice were given 30 minutes free access to a single sipper tube of water to familiarize them with accessing fluid in the lickometer device. Each 30 minute period began when the mouse made its first lick on the sipper tube; mice were allowed 30 minutes to make their first lick. On the third day of training, mice were presented with 10 second presentations (i.e., trials) of water to familiarize them with receiving and consuming fluid under a brief-access procedure in the lickometer. On each trial, the shutter that blocked access to the sipper tube was opened and mice were given 10 seconds to lick, and lick data were recorded by the lickometer computer. […]
Testing. […] For studies, individual Opn3KO, Opn1swKO, Opn4KO, Opn5KO and wild-type mice were evaluated for brief-access licking responses with different agonists. […]

[4] = test system: TRPM5 knockout mice; experiment: Mouse brief-access taste assay (lickometer), TRPM5 knockout mice compared to wild type; format: in vivo; conditions: TRPM5 knockout (taste blind) mice, water restricted
[5] = biological target: T3, OPN1SW (Mus musculus, UniProt P51491); experiment: TANGO assay (beta-arrestin recruitment, luciferase reporter) in HTLA cells, OPN1SW; format: cell-based; conditions: 4 hours
T3 construct: expressed in transfected cells; host or cells: HTLA cells (HEK293 line with tTA-dependent luciferase reporter and beta-arrestin2-TEV fusion)
T3 sequence (P51491 1-346): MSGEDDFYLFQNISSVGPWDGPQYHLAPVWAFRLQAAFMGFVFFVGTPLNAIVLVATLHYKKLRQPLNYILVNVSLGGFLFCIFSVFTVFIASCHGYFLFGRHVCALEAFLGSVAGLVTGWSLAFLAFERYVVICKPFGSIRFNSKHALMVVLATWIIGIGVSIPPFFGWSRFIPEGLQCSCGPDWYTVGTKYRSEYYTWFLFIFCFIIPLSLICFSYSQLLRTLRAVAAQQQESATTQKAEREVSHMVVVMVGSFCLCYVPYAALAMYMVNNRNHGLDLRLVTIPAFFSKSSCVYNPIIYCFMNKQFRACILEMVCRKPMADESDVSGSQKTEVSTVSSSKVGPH
Description: as §1, §2, §3

[6] = biological target: T4, OPN1SW (Homo sapiens, UniProt P03999); experiment: Calcium flux GPCR activation assay with Fluo-8 dye, opsin-expressing HEK293T cells, OPN1SW; format: cell-based; conditions: Fluo-8 calcium flux, data not shown
T4 construct: expressed in transfected cells; host or cells: HEK293T
T4 sequence (P03999 1-345): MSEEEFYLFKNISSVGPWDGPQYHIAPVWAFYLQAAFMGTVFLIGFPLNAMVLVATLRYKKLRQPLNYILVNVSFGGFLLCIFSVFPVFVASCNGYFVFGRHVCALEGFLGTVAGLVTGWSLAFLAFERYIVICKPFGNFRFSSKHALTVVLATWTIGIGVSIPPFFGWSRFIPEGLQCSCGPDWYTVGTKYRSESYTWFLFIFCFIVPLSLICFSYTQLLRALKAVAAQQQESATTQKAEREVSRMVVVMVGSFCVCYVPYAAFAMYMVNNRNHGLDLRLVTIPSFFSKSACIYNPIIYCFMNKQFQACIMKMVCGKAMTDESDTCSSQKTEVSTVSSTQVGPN
Protocol: as §4

T1 sequence (Q9WUK7 whole entry, the tested form may be a part): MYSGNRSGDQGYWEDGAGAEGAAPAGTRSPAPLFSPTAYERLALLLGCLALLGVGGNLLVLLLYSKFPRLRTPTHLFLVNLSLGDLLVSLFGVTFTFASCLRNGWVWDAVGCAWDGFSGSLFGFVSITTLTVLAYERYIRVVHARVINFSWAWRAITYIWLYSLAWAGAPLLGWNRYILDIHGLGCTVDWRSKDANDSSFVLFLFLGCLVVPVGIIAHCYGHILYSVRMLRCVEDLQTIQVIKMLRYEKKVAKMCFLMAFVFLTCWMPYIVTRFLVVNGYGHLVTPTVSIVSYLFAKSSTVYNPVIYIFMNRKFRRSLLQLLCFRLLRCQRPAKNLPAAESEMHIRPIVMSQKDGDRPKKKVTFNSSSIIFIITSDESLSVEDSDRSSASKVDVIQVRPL
T2 sequence (Q9H1Y3 whole entry): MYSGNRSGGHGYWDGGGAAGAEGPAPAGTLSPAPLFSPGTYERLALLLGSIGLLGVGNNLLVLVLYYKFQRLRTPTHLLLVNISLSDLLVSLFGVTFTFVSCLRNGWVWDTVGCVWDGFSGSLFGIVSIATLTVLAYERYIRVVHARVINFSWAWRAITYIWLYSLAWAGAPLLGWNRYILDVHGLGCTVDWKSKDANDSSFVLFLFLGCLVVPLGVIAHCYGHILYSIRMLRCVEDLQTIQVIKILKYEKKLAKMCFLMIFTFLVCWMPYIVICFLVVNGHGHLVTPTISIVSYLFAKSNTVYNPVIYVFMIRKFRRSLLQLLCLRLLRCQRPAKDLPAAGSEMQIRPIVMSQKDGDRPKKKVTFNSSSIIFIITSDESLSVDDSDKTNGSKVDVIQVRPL

Structure (SMILES): C[C@@H]1O[C@@H](O[C@H]2[C@H](Oc3cc(O)c4c(c3)O[C@H](c3ccc(O)cc3)CC4=O)O[C@H](CO)[C@@H](O)[C@@H]2O)[C@H](O)[C@H](O)[C@H]1O [naringin]
- activation of OPN3, fold-change from baseline luciferase signal vs. log concentration of tastant [1]: activation of OPN3; also recorded: activated; also recorded: potent activator of OPN3
- activation of calcium dye OPN3 detection elements [2]: significantly activated in a concentration dependent manner
- aversion to the bitter flavor (lick ratio), OPN3 knockout mice compared to wild type mice [3]: reduced aversion
- aversive response to the bitter flavor (lick ratio), TRPM5 knockout mice [4]: lost the aversive response

Structure (SMILES): Cn1cnc2c1c(=O)[nH]c(=O)n2C [theobromine]
- activation of OPN1SW, fold-change from baseline luciferase signal vs. log concentration of tastant [5]: activated; also recorded: activation of OPN1SW
- activation of calcium dye OPN1SW detection elements [6]: significantly activated in a concentration dependent manner
